The Ki is the dissociation constant of the complex between target and ligand, obtained from inhibition or displacement.

Assay [1] addresses D(3) dopamine receptor (Rattus norvegicus, UniProt P19020).
The target in assay [2] is T1, D(4) dopamine receptor (Rattus norvegicus, UniProt P30729).
T1 sequence (P30729 whole entry): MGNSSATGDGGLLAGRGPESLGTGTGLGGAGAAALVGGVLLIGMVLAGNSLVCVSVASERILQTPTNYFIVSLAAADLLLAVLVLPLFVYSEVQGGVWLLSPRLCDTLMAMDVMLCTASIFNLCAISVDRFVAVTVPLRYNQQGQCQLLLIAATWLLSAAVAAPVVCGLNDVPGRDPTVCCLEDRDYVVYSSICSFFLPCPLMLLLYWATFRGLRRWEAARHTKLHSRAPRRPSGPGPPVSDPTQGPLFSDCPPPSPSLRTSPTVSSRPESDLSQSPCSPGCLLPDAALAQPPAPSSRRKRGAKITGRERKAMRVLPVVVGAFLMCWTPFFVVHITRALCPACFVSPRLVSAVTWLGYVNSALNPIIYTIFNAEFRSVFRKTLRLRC

The target of assay [3] is D(2) dopamine receptor (Rattus norvegicus, UniProt P61169).
Sequence of D(2) dopamine receptor (P61169 whole entry): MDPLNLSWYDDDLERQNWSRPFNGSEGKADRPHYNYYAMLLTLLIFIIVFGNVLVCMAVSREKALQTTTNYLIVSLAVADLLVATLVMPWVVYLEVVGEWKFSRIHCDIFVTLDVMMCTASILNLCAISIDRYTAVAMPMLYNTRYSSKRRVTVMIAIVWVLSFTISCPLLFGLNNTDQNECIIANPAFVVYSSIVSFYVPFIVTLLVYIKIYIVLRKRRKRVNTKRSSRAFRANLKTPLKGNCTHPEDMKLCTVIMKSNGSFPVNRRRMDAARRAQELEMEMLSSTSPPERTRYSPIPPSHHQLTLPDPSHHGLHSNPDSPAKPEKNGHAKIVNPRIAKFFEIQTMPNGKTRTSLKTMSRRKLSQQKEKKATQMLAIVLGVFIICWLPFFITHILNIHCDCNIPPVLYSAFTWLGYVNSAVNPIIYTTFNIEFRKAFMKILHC
For assay [4], the target named is D(1A) dopamine receptor (Rattus norvegicus, UniProt P18901).
Sequence of D(1A) dopamine receptor (P18901 whole entry): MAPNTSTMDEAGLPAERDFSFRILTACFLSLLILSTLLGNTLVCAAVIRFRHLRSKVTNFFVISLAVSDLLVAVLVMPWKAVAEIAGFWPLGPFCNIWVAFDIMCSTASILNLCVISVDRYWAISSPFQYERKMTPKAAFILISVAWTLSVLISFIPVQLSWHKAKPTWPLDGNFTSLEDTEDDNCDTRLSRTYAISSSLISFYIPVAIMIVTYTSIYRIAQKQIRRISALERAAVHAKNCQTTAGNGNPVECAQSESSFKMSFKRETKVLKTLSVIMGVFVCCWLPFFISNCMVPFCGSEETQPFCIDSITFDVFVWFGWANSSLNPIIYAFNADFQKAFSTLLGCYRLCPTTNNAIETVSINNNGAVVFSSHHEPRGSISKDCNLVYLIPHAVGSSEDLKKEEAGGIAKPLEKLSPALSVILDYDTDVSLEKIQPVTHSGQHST

Where “and” joins values, the source holds several entries; their conditions need not be identical. Equal entries are not always repeated. Structures can show the parent of a compound that is named as a salt.

Sequence of D(3) dopamine receptor (P19020 whole entry): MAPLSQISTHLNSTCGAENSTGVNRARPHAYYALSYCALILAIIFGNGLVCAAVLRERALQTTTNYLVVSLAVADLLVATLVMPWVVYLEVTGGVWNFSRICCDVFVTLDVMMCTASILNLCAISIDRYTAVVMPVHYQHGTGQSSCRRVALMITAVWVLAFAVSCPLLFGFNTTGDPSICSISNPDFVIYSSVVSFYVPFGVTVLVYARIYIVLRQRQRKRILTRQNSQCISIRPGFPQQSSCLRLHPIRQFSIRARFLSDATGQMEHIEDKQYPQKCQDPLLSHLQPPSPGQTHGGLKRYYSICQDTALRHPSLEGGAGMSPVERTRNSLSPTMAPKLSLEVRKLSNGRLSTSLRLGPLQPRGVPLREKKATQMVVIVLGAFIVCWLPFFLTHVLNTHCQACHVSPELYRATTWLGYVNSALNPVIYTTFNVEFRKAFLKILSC

Regarding `Cc1ccc2c3c1Cc1c(ccc(O)c1O)[C@@H]3CNC2` (racemic) [Dinapsoline,(+/-)-6-Methyl], the Ki in assay [1] is 28 nM; in assay [2], 220 nM; in assay [3], 190 nM and 57 nM.
Turning to `Cc1cccc2c1CN[C@H]1CCc3cc(O)c(O)cc3[C@H]21` [Dihydrexidine, 4-methyl], the Ki in assay [1] was 85 nM; in assay [3], 674 nM; in assay [4], 6.6 nM and 18 nM.
`Oc1ccc2c(c1O)Cc1cccc3c1[C@H]2CNC3` [Dinapsoline, (R)(+)] showed a Ki in assay [2] of 60 nM.
For the compound `CCCN1Cc2ccccc2[C@H]2c3cc(O)c(O)cc3CC[C@@H]21` [Dihydrexidine, N-propyl], the Ki in assay [1] came to 8.7 nM; in assay [4] it was 180 nM.
Consider `Cc1ccc2c3c1CNC[C@H]3c1ccc(O)c(O)c1C2` (racemic) [Dinapsoline,(+/-)-4-Methyl], for which the Ki was 18 nM in assay [1]; 83 nM in assay [2]; 36 nM and 19 nM in assay [3].
On to `CCCN1Cc2c(C)ccc3c2[C@@H](C1)c1ccc(O)c(O)c1C3` (racemic) [Dinapsoline,(+/-)-4-Methyl-N-propyl], for which the Ki in assay [1] is 2.5 nM; in assay [2] it was 28 nM; in assay [3], 23 nM and 21 nM; in assay [4], 200 nM and 1400 nM.
In the case of `CCCN1Cc2cccc3c2[C@@H](C1)c1ccc(O)c(O)c1C3` (racemic) [(+/-)-2-propyldinapsoline hydrobromide], the Ki in assay [1] was 2.8 nM; in assay [2] it was 17 nM; in assay [3] it was 39 nM and 60 nM; in assay [4] it was 170 nM and 1200 nM and 660 nM.
With `C=CCN1Cc2cccc3c2[C@@H](C1)c1ccc(O)c(O)c1C3` (racemic) [Dinapsoline,(+/-)-N-allyl], the Ki in assay [1] is 14 nM; in assay [2], 48 nM.
`C=CCN1Cc2c(C)ccc3c2[C@@H](C1)c1ccc(O)c(O)c1C3` (racemic) [Dinapsoline,(+/-)-4-Methyl-N-allyl]: the Ki in assay [1] is 4.3 nM; in assay [2], 63 nM; in assay [3], 36 nM and 49 nM; in assay [4] it was 56 nM and 140 nM.
Take `CCCN1Cc2c(C)cccc2[C@H]2c3cc(O)c(O)cc3CC[C@@H]21` [Dihydrexidine, 4-methyl-N-propyl]: the Ki in assay [1] was 2.08 nM; in assay [4] it was 23.4 nM.
